Results reported in patent EP1479388A1, “Ready to use gemcitabin solution concentrates” (STADA ARZNEIMITTEL AG, priority 2003, dated 2004).
≈ marks a conversion by molar mass, not a printed value. Where a name gives a salt, the structure may show the parent alone. Read-outs that look alike come from different tables or passages of the source.

Experiments:
[1] = Maximum solubility in 66 Vol.-% ethanol after dissolving at 35-45 °C and cooling, HPLC (Beispiel 4); format: physicochemical; conditions: dissolved at 35-45 °C 6 h, cooled, 24 h at 19-23 °C
Description: Die maximale Löslichkeit von Gemcitabinhydrochlorid wurde unter weiterer Verwendung von 1 N Natronlauge, Wasser für Injektionszwecke und absolutem Ethanol, in als hierfür optimal erkanntem 66 Vol.-%-igem Anteil bei gesteigerten Lösungstemperaturen (35-45 °C, 6 Stunden Rühren) und anschließendem Abkühlen auf Raumtemperatur (19-23 °C) und 24-stündiger Lagerung bei 19-23 °C ermittelt. Hierbei wurde im partikelfreien Überstand der gelagerten Lösungen mittels HPLC ein Gehalt von 95,1 mg/ml Gemcitabin bzw. 108,3 mg/ml Gemcitabinhydrochlorid bestimmt.

[2] = Saturation concentration of gemcitabine in aqueous-ethanolic solutions, HPLC (Beispiel 3); format: physicochemical; conditions: interpolation (Polynom 6. Grades), ca. 66 Vol.% Ethanolanteil, pH 10 +/-0,5
Excerpt: Um die Sättigungskonzentration von Gemcitabin in wässrig-ethanolischeh Lösungen zu ermitteln, wurden Gemcitabin-Lösungen mit verschiedenen Volumenanteilen an Ethanol hergestellt und analysiert.
Hierzu wurde Gemcitabinhydrochlorid im Ansatzbehälter vorgelegt, mit einer stöchiometrischen Menge an wässrig gelöstem Alkalisierungsmittel (1 N Natronlauge) versetzt, anschließend mit jeweils 80 % der in Vortests ermittelten erforderlichen Mengen an Wasser für Injektionszwecke als auch mit jeweils erforderlichen Mengen an Ethanol versetzt.
Die im Ansatz enthaltenen Bestandteile wurden anschließend unter 6-stündigem Rühren bei Raumtemperatur (19-23 °C) derart gelöst, dass ein ungelöster Bodensatz an Gemcitabinhydrochlorid im Ansatzbehälter verblieb. Der pH-Wert des Ansatzes wurde potentiometrisch bestimmt und erforderlichenfalls mit 1 N Natronlauge bzw. 1 N Salzsäure auf einen pH-Wert von 10 eingestellt, um mit diesem pH-Wert eine vollständige Umsetzung des Gemcitabinhydrochlorids zur gelösten Gemcitabinbase zu erzielen.
Der Ansatz wurde 24 Stunden bei 19-23 °C gelagert. Der pH-Wert wurde anschließend kontrolliert und nur solche klaren Überstände der Ansätze weiterverarbeitet, deren pH-Werte 10 +/- 0,5 betrugen. Diese wurden dann partikelfrei filtriert und der Gehalt an Gemcitabin per HPLC bestimmt.

[3] = cited from earlier work

maximale Löslichkeit (Gehalt im partikelfreien Überstand) ([1]; 1440 min) | Maximum der Gemcitabin-Löslichkeit [2] | solubility at 24 h ([1]; 66 vol% aqueous ethanol, organic solvent or mixture, read-out: maximale Löslichkeit (Gehalt im partikelfreien Überstand)) | solubility thermodynamic ([2]; 66 vol% aqueous ethanol, pH 10, organic solvent or mixture, read-out: Maximum der Gemcitabin-Löslichkeit) | SMILES | Löslichkeit des Gemcitabins in Wasser ([3]; pH-Bereich von 2,7 bis 3,3) | Löslichkeit des Gemcitabins in Wasser ([3]; pH-Wert von 5) | Löslichkeit des Gemcitabins in Wasser ([3]; pH-Wert von 7) | Löslichkeit des Gemcitabins in Wasser ([3]; pH-Wert von 9)
108,3 mg/ml | 55 mg/mL | – | – | Nc1ccn([C@@H]2O[C@H](CO)[C@@H](O)C2(F)F)c(=O)n1 [Gemcitabinhydrochlorid] | – | – | – | –
– | – | 95.1 mg/mL (≈ 361 mM) | 50 mg/mL (≈ 190 mM) | Nc1ccn([C@@H]2O[C@H](CO)[C@@H](O)C2(F)F)c(=O)n1 [Gemcitabin, 2'-Deoxy-2',2'-difluorcytidin] | ca. 38 mg/ml | 16,0 mg/ml | 15,3 mg/ml | 15,8 mg/ml
